One data set relates to SARS-cov2. Particulars: person.

Like-named read-outs stand apart in the source and are kept apart here.

Take `Cc1nc(Nc2ncc(C(=O)Nc3c(C)cccc3Cl)s2)cc(N2CCN(CCO)CC2)n1` [Dasatinib, reference compound]: in the data set with Influenza A (human, in vivo, po), the tolerability result was “tolerates the medication well”.

As to “Tocilizumab: anti-IL-6 receptor antibody molecule”, in the data set on SARS-cov2 (COPD and diabetes, O2 saturation 87%, Tocilizumab 8 mg/Kg by auto-injector), the clinical course entry is recorded as “stabilization”. In addition, in the data set with SARS-cov2 (fever >38.5° C., O2 saturation 92%, Tocilizumab 8 mg/Kg intravenous infusion), the “patient's condition” value was “condition stabilizes initially”. The tolerability result in the data set on SARS-cov2 (Tocilizumab 8 mg/Kg by auto-injector) is recorded as “tolerates the medication well”. In addition, the “renal and neurological status” value in the data set with Influenza A (person with ARDS and shock, after Tocilizumab 600 mg i.v.) was “continues to have renal and neurological deterioration”.

B1: Sarilumab: anti-IL-6 receptor antibody molecule (antibody, chains of the INN, looked up, V domains shown)
VH: EVQLVESGGGLVQPGRSLRLSCAASRFTFDDYAMHWVRQAPGKGLEWVSGISWNSGRIGYADSVKGRFTISRDNAENSLFLQMNGLRAEDTALYYCAKGRDSFDIWGQGTMVTVSS
VL: DIQMTQSPSSVSASVGDRVTITCRASQGISSWLAWYQQKPGKAPKLLIYGASSLESGVPSRFSGSGSGTDFTLTISSLQPEDFASYYCQQANSFPYTFGQGTKLEIK
Consider B1, for which the tolerability entry with SARS-cov2 (COPD and hypertension, O2 saturation 89%, Sarilumab 200 mg subcutaneous, self-administered) is listed as “tolerates the medication well”.

Values taken from patent US20230130925A1 (priority 2020, published 2023).
